The text below walks through data of ChEMBL document CHEMBL1201862, “PubChem BioAssay data set” (2004).

Among the test systems are A498; CAKI-1; DU-145; HOP-92; K562; M14; MOLT-4; Malme-3M; NCI-H23; SF-295; SF-539; SK-MEL-2; SK-OV-3; SNB-75; T47D; KM12; NCI-H226; COLO 205; UACC-62.
Common to all, as to test: NCI-60 cell line screen, 48 h

Structures are written as SMILES. Where a name gives a salt, the structure may show the parent alone.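 A five-concentration, 48-hour dose response in 96-well plates underlies each endpoint, interpolated linearly between surrounding concentrations. Here, GI50 denotes the concentration required for 50% inhibition of growth.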 Active and inactive are the calls of the source. Cut-off read from the data, not from the text of the source: active = GI50 up to about 1.1 µM and inactive = higher.

Turning to `O=C1c2cc3c(cc2CC12Cc1cc4c(cc1C2=O)CCC4)CCCC3` (stereo not given), the GI50 with A498, with CAKI-1, in the experiment on DU-145, with HOP-92, in the experiment on K562 and in the experiment with M14 was > 100 µM (inactive) each time. Further, the GI50 was > 100 µM (inactive) with MOLT-4; 59.4 µM (inactive) with Malme-3M; > 100 µM (inactive) with NCI-H23; > 100 µM (inactive) with SF-295; > 100 µM (inactive) in the experiment with SF-539; > 100 µM (inactive) in the experiment with SK-MEL-2. For the same compound, the GI50 in the experiment on SK-OV-3, in the experiment with SNB-75 and in the experiment on T47D was > 100 µM (inactive) each time.
`CCn1c2nc(=O)n(CCCCCCCCSC(c3ccccc3)(c3ccccc3)c3ccccc3)c(=O)c-2nc2ccccc21`: the GI50 in the experiment on A498 is 37.8 µM (inactive); in the experiment on CAKI-1 it was 5.22 µM (inactive); in the experiment on DU-145 it was 90.6 µM (inactive); in the experiment with HOP-92 it was 15.5 µM (inactive); with K562 it was 5.55 µM (inactive); in the experiment on KM12, 9.91 µM (inactive). The GI50 in the experiment on M14 was 8.61 µM (inactive); in the experiment on MOLT-4 it was 2.9 µM (inactive); with NCI-H226, > 100 µM (inactive); in the experiment on NCI-H23 it was 8.3 µM (inactive); in the experiment with SF-295, 20.4 µM (inactive); in the experiment with SF-539, 64.3 µM (inactive). Also, the GI50 in the experiment on SK-MEL-2 is 8.41 µM (inactive); in the experiment on SK-OV-3, 82.8 µM (inactive); with T47D, 8.05 µM (inactive).
As to `COc1ccc(C2C(=O)c3c(OC)cc(OC)cc3OC2c2cccnc2)cc1` (stereo not given), the GI50 is > 100 µM (inactive) with A498; > 100 µM (inactive) with CAKI-1; 70.3 µM (inactive) in the experiment with COLO 205; > 100 µM (inactive) with DU-145; 59.6 µM (inactive) with K562; > 100 µM (inactive) in the experiment on KM12. Further, the GI50 in the experiment on M14 is > 100 µM (inactive); in the experiment with MOLT-4 it was 46 µM (inactive); in the experiment on Malme-3M, 67.9 µM (inactive); in the experiment on NCI-H226 it was 43.8 µM (inactive); in the experiment with NCI-H23, > 100 µM (inactive); with SF-295 it was 53.5 µM (inactive). The GI50 in the experiment on SF-539 is > 100 µM (inactive); in the experiment on SK-MEL-2 it was > 100 µM (inactive); in the experiment on SK-OV-3, > 100 µM (inactive); with SNB-75, 27.4 µM (inactive); in the experiment with T47D it was > 100 µM (inactive); in the experiment on UACC-62, 82.2 µM (inactive).
Consider `COC(=O)CC(NC(=O)OCc1ccccc1)C(C(C)=O)C(=O)OCc1ccccc1` (stereo not given), for which the GI50 in the experiment with A498, with CAKI-1, in the experiment on COLO 205, with HOP-92, with K562 and with KM12 was > 31.6 µM (inactive) throughout. Further, the GI50 is > 31.6 µM (inactive) with M14; > 31.6 µM (inactive) in the experiment on MOLT-4; > 10 µM (inactive) with Malme-3M; > 10 µM (inactive) in the experiment with NCI-H226; > 31.6 µM (inactive) with NCI-H23; > 100 µM (inactive) with SF-295. In addition, the GI50 in the experiment on SF-539 is > 31.6 µM (inactive); in the experiment on SK-MEL-2, > 10 µM (inactive); in the experiment on SK-OV-3, > 31.6 µM (inactive); in the experiment on SNB-75, 20.2 µM (inactive); in the experiment on UACC-62, > 31.6 µM (inactive).
For `CN(C)CC1CCC(CN(C)C)C1=O` (stereo not given), the GI50 in the experiment with A498 is 25.4 µM (inactive); with CAKI-1 it was 0.736 µM (active); in the experiment on COLO 205, 0.608 µM (active); with HOP-92 it was 2.24 µM (inactive); in the experiment on K562, 0.418 µM (active); with KM12, 10.3 µM (inactive). The GI50 in the experiment with M14 was 2.91 µM (inactive); with MOLT-4 it was 0.594 µM (active); with Malme-3M it was 1.73 µM (inactive); in the experiment with NCI-H226, 19.7 µM (inactive); in the experiment with NCI-H23, 4.05 µM (inactive); in the experiment with SF-295, 18.3 µM (inactive). Besides, the GI50 in the experiment with SF-539 is 18.4 µM (inactive); with SK-MEL-2, 14.1 µM (inactive); in the experiment on SK-OV-3, 16.8 µM (inactive); with SNB-75 it was 20.7 µM (inactive); in the experiment with T47D it was 1.39 µM (inactive); in the experiment with UACC-62, 13.9 µM (inactive).
In the case of `CCCCCCCCCCCCCC1CCC(CC)N1` (stereo not given), the GI50 was 21.4 µM (inactive) in the experiment with A498; 15.8 µM (inactive) in the experiment with CAKI-1; 15.1 µM (inactive) with COLO 205; 16.2 µM (inactive) in the experiment with HOP-92; 14.8 µM (inactive) in the experiment with K562; 17.2 µM (inactive) in the experiment with KM12. The GI50 was 17.9 µM (inactive) with M14; 11.9 µM (inactive) with MOLT-4; 18.4 µM (inactive) in the experiment on Malme-3M; 15.3 µM (inactive) in the experiment with NCI-H226; 18.6 µM (inactive) in the experiment with NCI-H23; 18.6 µM (inactive) with SF-295. For the same compound, the GI50 with SF-539 was 17.6 µM (inactive); in the experiment on SK-MEL-2, 21.8 µM (inactive); in the experiment on SK-OV-3, 17 µM (inactive); in the experiment on SNB-75 it was 7.28 µM (inactive); in the experiment on UACC-62, 6.98 µM (inactive).
In the case of `NCCCNOCCCN`, the GI50 in the experiment on A498 was > 100 µM (inactive); with CAKI-1, > 100 µM (inactive); with COLO 205, > 100 µM (inactive); in the experiment on DU-145 it was > 100 µM (inactive); in the experiment with HOP-92, 37.8 µM (inactive); in the experiment with K562, > 100 µM (inactive). The GI50 with KM12, with M14, in the experiment on MOLT-4, in the experiment on Malme-3M, with NCI-H23 and in the experiment on SF-295 was > 100 µM (inactive) in each case. Also, the GI50 in the experiment on SF-539, with SK-MEL-2, with SK-OV-3, with T47D and in the experiment on UACC-62 was > 100 µM (inactive) throughout.
For `CC(=O)OC1COC(n2ccc3cc(Br)c([N+](=O)[O-])cc32)C(OC(C)=O)C1OC(C)=O` (stereo not given), the GI50 is 19.1 µM (inactive) in the experiment with A498; 33.7 µM (inactive) in the experiment with CAKI-1; 23.7 µM (inactive) with COLO 205; 9.44 µM (inactive) with HOP-92; 29.6 µM (inactive) in the experiment with K562; 34.2 µM (inactive) in the experiment on KM12. Also, the GI50 with M14 is 35.8 µM (inactive); in the experiment on MOLT-4, > 10 µM (inactive); in the experiment on Malme-3M, 24.2 µM (inactive); in the experiment with NCI-H226, 14.5 µM (inactive); in the experiment on NCI-H23 it was 23.3 µM (inactive); in the experiment with SF-295 it was 20.9 µM (inactive). The GI50 with SF-539 was 22.2 µM (inactive); with SK-MEL-2, > 10 µM (inactive); in the experiment on SK-OV-3 it was 31.8 µM (inactive); with SNB-75, 23.1 µM (inactive); with UACC-62, 17.6 µM (inactive).
Consider `Cc1c(NC(=O)CCCl)c(=O)oc2c(C)c3occc(=O)c3cc12`, for which the GI50 with A498 is 19.7 µM (inactive); with CAKI-1, 42.1 µM (inactive); in the experiment with COLO 205, > 100 µM (inactive); with DU-145, > 100 µM (inactive); in the experiment on HOP-92 it was 28.9 µM (inactive); in the experiment with K562, 66.4 µM (inactive). Also, the GI50 in the experiment with KM12 was > 100 µM (inactive); with M14 it was 50.8 µM (inactive); with MOLT-4, 76.9 µM (inactive); with Malme-3M it was 23.5 µM (inactive); in the experiment on NCI-H23, 94.4 µM (inactive); in the experiment on SF-295, 33 µM (inactive). In addition, the figures for the GI50 in the experiment on SK-OV-3, with SNB-75 and in the experiment on T47D were 86.9 µM (inactive), 42.2 µM (inactive) and 77.4 µM (inactive), respectively.
Turning to `[O-][N+]1=NC(c2ccccc2)=C1c1ccccc1`, the GI50 in the experiment on A498, in the experiment with CAKI-1, in the experiment on COLO 205, in the experiment on DU-145, with HOP-92 and in the experiment on K562 was > 50 µM (inactive) in each case. Besides, the GI50 in the experiment on KM12, in the experiment on M14, with MOLT-4, with Malme-3M, in the experiment with NCI-H226 and with NCI-H23 was > 50 µM (inactive) throughout. The GI50 with SF-295 was > 50 µM (inactive); in the experiment with SF-539 it was > 50 µM (inactive); in the experiment on SK-MEL-2, > 50 µM (inactive); in the experiment on SK-OV-3, > 50 µM (inactive); with SNB-75 it was 10.8 µM (inactive); in the experiment on UACC-62, > 50 µM (inactive).
Consider `O=C1OC(c2ccccc2)=N/C1=C/N1CCCC1C(=O)O` (stereo not given), for which the GI50 in the experiment on A498, with CAKI-1, in the experiment on COLO 205, in the experiment with HOP-92, in the experiment with K562 and in the experiment on KM12 was > 100 µM (inactive) in each case. Further, the GI50 in the experiment with M14, in the experiment with Malme-3M, in the experiment with NCI-H226, in the experiment on NCI-H23, in the experiment with SF-295 and with SF-539 was > 100 µM (inactive) throughout. Also, the GI50 with SK-MEL-2, in the experiment with SK-OV-3, with SNB-75 and with UACC-62 was > 100 µM (inactive) in each case.
`CNC(C)Cc1ccccc1OC` (stereo not given) [METHOXYPHENAMINE HYDROCHLORIDE]: the GI50 with A498, in the experiment with CAKI-1, with COLO 205, in the experiment on HOP-92, with K562 and in the experiment on KM12 was > 100 µM (inactive) in each case. The GI50 in the experiment on M14, with MOLT-4, in the experiment on Malme-3M, in the experiment with NCI-H226, in the experiment with NCI-H23 and with SF-295 was > 100 µM (inactive) each time. Moreover, the GI50 with SF-539, in the experiment on SK-MEL-2, in the experiment with SK-OV-3, with SNB-75 and in the experiment on UACC-62 was > 100 µM (inactive) each time.
